Reference: paper PMC2358886, “Evolution of pharmacologic specificity in the pregnane X receptor” (BMC Evolutionary Biology, 2008)
Like-named read-outs stand apart in the source and are kept apart here.

Assays:
[1] = target: T1, human PXR (Homo sapiens, UniProt O75469)
T1 sequence (O75469 1-434): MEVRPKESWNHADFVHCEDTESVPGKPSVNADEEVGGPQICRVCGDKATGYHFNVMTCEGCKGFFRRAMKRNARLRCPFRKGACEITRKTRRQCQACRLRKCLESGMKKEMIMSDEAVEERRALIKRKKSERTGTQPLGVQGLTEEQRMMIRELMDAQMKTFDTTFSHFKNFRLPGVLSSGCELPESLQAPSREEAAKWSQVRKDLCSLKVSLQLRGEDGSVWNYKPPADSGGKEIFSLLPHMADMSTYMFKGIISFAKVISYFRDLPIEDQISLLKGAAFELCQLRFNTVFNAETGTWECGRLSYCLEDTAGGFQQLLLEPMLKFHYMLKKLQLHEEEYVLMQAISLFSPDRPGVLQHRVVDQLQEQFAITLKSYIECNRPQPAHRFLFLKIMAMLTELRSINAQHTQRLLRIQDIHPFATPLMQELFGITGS

[2] = target: T2, zebrafish PXR (Danio rerio, UniProt A5WYG8)
T2 sequence (A5WYG8 144-430): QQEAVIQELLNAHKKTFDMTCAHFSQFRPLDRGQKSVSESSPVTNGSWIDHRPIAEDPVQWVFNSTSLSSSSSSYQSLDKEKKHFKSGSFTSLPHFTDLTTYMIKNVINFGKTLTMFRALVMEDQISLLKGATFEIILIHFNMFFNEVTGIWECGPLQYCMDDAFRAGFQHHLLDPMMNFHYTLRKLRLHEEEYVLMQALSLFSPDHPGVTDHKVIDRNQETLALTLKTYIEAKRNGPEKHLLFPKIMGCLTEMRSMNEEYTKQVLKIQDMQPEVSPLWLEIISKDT

[3] = test system: HepG2 cells
[4] = -log(EC50), EC50 in molar units, activation of zebrafish PXR

Compound	hPXR Activity [1]	zfPXR Activity [2, 4]	Toxicity [3]	also measured
4-Pregnen-20β-ol-3,20-dione-17α-sulfate [PR22]	5.73	None	None	
C[C@]12CC[C@H](O)CC1=CC[C@@H]1[C@@H]2CC[C@]2(C)C(=O)CC[C@@H]12 [AN9, 5-Androsten-3β-ol-17-one]	4.49		None	EC50 [1]: 11 to 50 µM; hPXR Efficacy [1]: 0.52; EC50 [2]: 11 to 50 µM; zfPXR Activity [2]: 4.89; zfPXR Efficacy [2]: 0.35
C[C@H](CC(=O)O)[C@H]1CC[C@H]2[C@@H]3CC[C@@H]4C[C@H](O)CC[C@]4(C)[C@H]3C[C@H](O)[C@]12C [BI26, 23-Nordeoxycholic acid]	4.79	None	None	
C[C@H](CC(=O)O)[C@H]1CC[C@H]2[C@@H]3[C@H](O)C[C@@H]4C[C@H](O)CC[C@]4(C)[C@H]3C[C@H](O)[C@]12C [BI27, 23-Norcholic acid]	4.02	None	None	
C[C@H](CCCO)[C@H]1CC[C@H]2[C@@H]3[C@H](O)C[C@H]4C[C@H](O)CC[C@]4(C)[C@H]3C[C@H](O)[C@]12C [BI29, 5α-Cholan-3α,7α,12α,-24-tetrol]	None	None	50 µM	
C[C@H](CCCOS(=O)(=O)O)[C@H]1CC[C@H]2[C@@H]3[C@H](O)C[C@H]4CC(=O)CC[C@]4(C)[C@H]3C[C@H](O)[C@]12C [BI32, 5α-Cholan-7α,12α-diol-3-one-24-sulfate]	None	None	None	
C[C@H](CCC(O)C(CO)CO)[C@H]1CC[C@H]2[C@@H]3[C@H](O)C[C@@H]4C[C@H](O)CC[C@]4(C)[C@H]3C[C@H](O)[C@]12C (stereo partly drawn) [BI35, 5β-Cholestan-3α,7α,12α,24,26-hexol]	None	None	100 µM	
C[C@H](CCCC(CO)CO)[C@H]1CC[C@H]2[C@@H]3[C@H](O)C[C@@H]4C[C@H](O)CC[C@]4(C)[C@H]3C[C@H](O)[C@]12C [BI37, 5β-Cholestan-3α,7α,12α,26,27-pentol]	None	None		Toxicity ([3]; human, 24 hr): 50 µM
CC(CO)CCC[C@@H](C)[C@H]1[C@H](O)C[C@H]2[C@@H]3[C@H](O)C[C@H]4C[C@@H](O)CC[C@]4(C)[C@H]3CC[C@]12C (stereo partly drawn) [BI40, 5α-Cholestan-3β,7α,16α,27-tetrol]	None	None		Toxicity ([3]; human, 24 hr): 100 µM
C[C@]12CC[C@@H]3c4ccc(O)cc4CC[C@H]3[C@@H]1C[C@@H](O)[C@@H]2O [ES3, 1,3,5(10)-Estratrien-3,16α,17β-triol]	None	None		Toxicity ([3]; human, 24 hr): 200 µM
C[C@]12CC[C@@H]3c4ccc(O)cc4CC[C@H]3[C@@H]1C[C@@H](O)C2=O [ES4, 1,3,5(10)-Estratrien-3,16α-diol-17-one]	5.60	5.70	None	zfPXR Efficacy [2]: 0.17
COc1c(O)ccc2c1CC[C@@H]1[C@@H]2CC[C@]2(C)C(=O)CC[C@@H]12 [ES5, 1,3,5(10)-Estratrien-3-ol-4-methoxy-17-one]	5.40	5.62	None	zfPXR Efficacy [2]: 0.19
C[C@]12CC[C@@H]3c4ccc(OS(=O)(=O)O)cc4CC[C@H]3[C@@H]1CCC2=O [ES8, 1,3,5(10)-Estratrien-17-one-3-sulfate]	5.47	None	None	
C#C[C@]1(O)CC[C@H]2[C@@H]3CCc4cc(O)ccc4[C@H]3CC[C@@]21C [ES11, 1,3,5(10)-Estratrien-17α-ethinyl-3,17β-diol]		None		hPXR Efficacy ([1]; human): 0.68; Toxicity ([3]; human, 24 hr): 200 µM
CCC1(c2ccccc2)C(=O)NC(=O)NC1=O [MI25, Phenobarbital]			None	hPXR Efficacy ([1]; human): 1.19
